# Results: paper PMC6358775, “Elucidation of Vasodilation Response and Structure Activity Relationships of N^2,N^4-Disubstituted Quinazoline 2,4-Diamines in a Rat Pulmonary Artery Model” (Molecules, 2019)
# Read-outs that look alike come from different tables or passages of the source.
# How the values were obtained:
# [1] = test system: endothelium-intact rat pulmonary arterial rings; assay: Vasorelaxation of PE pre-contracted endothelium-intact (E+) pulmonary arterial rings, organ bath; details: Rattus norvegicus; for Emax: maximal relaxation, endothelium-intact rings, up to 30 µM, mean ± SEM; for IC50: Table S3, endothelium-intact, read-out: E+ Vaso. pIC50 (converted); for EC50: endothelium-intact (E+) rings pre-contracted with 10^-5 M PE, cumulative 0.0001–30 µM, mean (SEM), n = 6, read-out: Vaso E+ EC50 µM (SEM)
# [2] = test system: endothelium-denuded rat pulmonary arterial rings; assay: Vasorelaxation of PE pre-contracted endothelium-denuded (E−) pulmonary arterial rings, organ bath; details: for IC50: Table S3, endothelium-denuded, read-out: E- Vaso. pIC50 (converted); for EC50: endothelium-denuded (E−) rings pre-contracted with 10^-5 M PE, cumulative 0.0001–30 µM, mean (SEM), n = 6, read-out: Vaso E− EC50 µM (SEM); for Emax: maximal relaxation, endothelium-denuded rings, up to 30 µM, mean ± SEM
# A549 cells = assay: MTT cytotoxicity assay in A549 cells; format: cell-based; details: Homo sapiens
# Description: A 3-[4,5-dimehyl-2-thiazolyl]-2,5-diphenyl-2H-tetrazoliumbromide (MTT) assay was utilized to assess the concentration-response curves for quinazoline analogues as previously reported. A549 cells (ATCC CCL-185, human alveolar basal epithelial cell line) were used to account for the general cytotoxicity of compounds. Cells were cultured in DMEM medium containing fetal bovine serum (FBS; 10%), penicillin (10 U/mL), and streptomycin (100 U/mL). The temperature was maintained at 37 °C with 5% CO2. Cells were seeded for 16–18 h in DMEM and incubated for 72 h with the test compounds. After incubation, MTT (5 mg/mL in normal saline) was added with DMEM and incubated for 3 h. Careful decantation of the medium and addition of DMSO (50 µL) was done. Absorbance values were recorded at 570 nm after 5 min mechanical shaking of the microplate (Sunrise microplate reader, Tecan).
# The activity was presented as the inhibitory concentration required to produce a 50% response (IC50). Prism 6.0 GraphPad Software Inc., (San Diego, CA, USA) was utilized for data fitting. 0.5% DMSO was used as the negative control.
# physchem = details: for Log Sol / Sol. pH7.4 (µM): 6 h, pH 7.4; for solubility thermodynamic at 6 h: pH 7.4, aqueous buffer, thermodynamic from solid
# Description: The solubility of the compounds under investigation here were assessed in phosphate buffer at pH 7.4 using the equilibrium shake-flask method.
# An equilibrium shake-flask technique was used to determine the solubility of samples in PBS at pH 7.4. Approximately 1 mg of sample was placed in a 10 mL glass screw top vial and dissolved in 1 mL of 0.02 M PBS at pH 7.4. The solution was sonicated for 1 h, followed by shaking for 6 h (IKA HS 260). The saturated solution was then filtered using a nylon syringe filter. A standard solution of each sample was prepared by dissolving a weighed amount of the sample in 1 mL of DMSO. The concentration of sample dissolved in the PBS solution was determined by comparing the peak area of the PBS and DMSO standard using an Agilent 1100 series HPLC with a Sunshell C8 column (Chromanik Technologies Inc., Osaka, Japan). A 100 µL injection of the aqueous sample and 5 µL of DMSO solution (pre-diluted 100 fold using DMSO) were used.
# [3] = A549, MTT, 72 h incubation, read-out: A549 IC50, µM (S.D.)
# [4] = Table S3, A549, read-out: Cytox. pIC50 (converted)
Structure (SMILES),Emax [1],IC50 [1],EC50 [1],IC50 [2],EC50 [2],Emax [2],IC50 (A549 cells; [3]),IC50 (A549 cells; [4]),Log Sol (physchem),Sol. pH7.4 (µM) (physchem),solubility thermodynamic at 6 h (physchem)
c1ccc(CNc2nc(Nc3ccccc3)nc3ccccc23)cc1 [Compound 1],90 ± 5.64%,5.5 µM,5.54 µM,13.5 µM,13.5 µM,86.4 ± 4.03%,12.3 µM,12.3 µM,-0.39,0.41 µM,130 µg/mL
CN(C)S(=O)(=O)c1ccc(Nc2nc(NCc3ccccc3)c3ccccc3n2)cc1 [Compound 3],82.4 ± 5.9%,3.55 µM,3.59 µM,6.31 µM,6.25 µM,64.3 ± 5.31%,18.3 µM,18.2 µM,-0.06,0.88 µM,380 µg/mL
NS(=O)(=O)c1ccc(Nc2nc(NCc3ccccc3)c3ccccc3n2)cc1 [Compound 4],88.5 ± 5.58%,3.16 µM,3.13 µM,8.32 µM,8.29 µM,78.5 ± 9.19%,23 µM,22.9 µM,-1.52,0.03 µM,10 µg/mL
NS(=O)(=O)c1cccc(Nc2nc(NCc3ccccc3)c3ccccc3n2)c1 [Compound 5],91.7 ± 3.77%,1.62 µM,1.63 µM,1.15 µM,1.15 µM,95.8 ± 2.4%,11.2 µM,11.2 µM,0.14,1.37 µM,560 µg/mL
c1ccc(Nc2nc(NCc3cccs3)c3ccccc3n2)cc1 [Compound 6],88 ± 7.39%,9.33 µM,9.42 µM,9.33 µM,9.51 µM,91.2 ± 5.26%,27.8 µM,27.5 µM,-0.40,0.40 µM,130 µg/mL
NS(=O)(=O)c1ccc(Nc2nc(NCc3cccs3)c3ccccc3n2)cc1 [Compound 9],98.4 ± 1.4%,1.02 µM,1.03 µM,1.74 µM,1.72 µM,82.1 ± 8.43%,32.7 µM,32.4 µM,-0.80,0.16 µM,60 µg/mL
NC(=O)c1ccc(Nc2nc(NCc3cccs3)c3ccccc3n2)cc1 [Compound 10],90.2 ± 6.48%,1.45 µM,1.46 µM,5.13 µM,5.15 µM,90.4 ± 5.3%,28.3 µM,28.2 µM,0.08,1.20 µM,450 µg/mL
NS(=O)(=O)c1cccc(Nc2nc(NCc3cccs3)c3ccccc3n2)c1 [Compound 11],98.7 ± 1.26%,2.29 µM,2.28 µM,11 µM,10.9 µM,87.4 ± 4.66%,15 µM,15.1 µM,-0.47,0.34 µM,140 µg/mL
NC(=O)c1cccc(Nc2nc(NCc3cccs3)c3ccccc3n2)c1 [Compound 12],98.7 ± 1.31%,4.17 µM,4.15 µM,8.13 µM,8.15 µM,87.1 ± 3.63%,15.4 µM,15.5 µM,-0.25,0.56 µM,210 µg/mL
